Where a name gives a salt, the structure may show the parent alone.
Assay: Crystalline form of atrasentan hydrochloride found in solvents over time (conversion to Form 2) at 25° C.
Format: physicochemical
Design: key: 1, 2 and 3 mean Atrasentan Hydrochloride Crystalline Forms 1, 2 and 3, respectively.; 1, 2 and 3 mean Atrasentan Hydrochloride Crystalline Forms 1, 2 and 3, respectively.; 1, 2 and 3 mean Atrasentan Hydrochloride Crystalline Forms 1, 2 and 3, respectively
Procedure: Examples of representative solvents that are useful for converting a particular crystalline form of atrasentan hydrochloride to Atrasentan Hydrochloride Crystalline Form 2 having substantial crystalline purity at 25° C. are shown in TABLE 2.

- crystalline form present (0.1M HCl, week 1): 1
- crystalline form present (0.1M HCl, week 2): 1
- crystalline form present (0.1M HCl, week 4): 1
- crystalline form present (0.1M HCl, week 9): 2
- crystalline form present (0.1M HCl, week 16): 2
- crystalline form present (IPA (isopropyl alcohol), week 1): 1
- crystalline form present (IPA (isopropyl alcohol), week 2): 1
- crystalline form present (IPA (isopropyl alcohol), week 4): 2
- crystalline form present (IPA (isopropyl alcohol), week 9): 2
- crystalline form present (IPA (isopropyl alcohol), week 16): 2
- crystalline form present (PEG 400 (polyethylene glycol), week 1): 1
- crystalline form present (PEG 400 (polyethylene glycol), week 2): 1
- crystalline form present (PEG 400 (polyethylene glycol), week 4): 1
- crystalline form present (PEG 400 (polyethylene glycol), week 9): 1
- crystalline form present (PEG 400 (polyethylene glycol), week 16): 2
- crystalline form present (acetone, week 1): 2
- crystalline form present (acetone, week 2): 2
- crystalline form present (acetone, week 4): 2
- crystalline form present (acetone, week 9): 2
- crystalline form present (acetone, week 16): 2
- crystalline form present (ethanol, week 1): 2
- crystalline form present (ethanol, week 2): 2
- crystalline form present (ethanol, week 4): 2
- crystalline form present (ethanol, week 9): 2
- crystalline form present (ethanol, week 16): 2
- crystalline form present (ethyl acetate, week 1): 1
- crystalline form present (ethyl acetate, week 2): 1
- crystalline form present (ethyl acetate, week 4): 1
- crystalline form present (ethyl acetate, week 9): 2
- crystalline form present (ethyl acetate, week 16): 2
- crystalline form present (nitromethane, week 1): 3
- crystalline form present (nitromethane, week 2): 3
- crystalline form present (nitromethane, week 4): 3
- crystalline form present (nitromethane, week 9): 3
- crystalline form present (nitromethane, week 16): 2
SMILES: CCCCN(CCCC)C(=O)CN1C[C@H](c2ccc3c(c2)OCO3)[C@@H](C(=O)O)[C@@H]1c1ccc(OC)cc1 [atrasentan hydrochloride, (2R,3R,4S)-(+)-2-(4-methoxyphenyl)-4-(1,3-benzodioxol-5-yl)-1-(N,N-di(n-butyl)aminocarbonylmethyl)pyrrolidine-3-carboxylic acid]

Source: patent publication US20080132710A1, “ATRASENTAN HYDROCHLORIDE CRYSTALLINE FORM 2” (ABBOTT LABORATORIES, priority 2006, published 2008)
